Test results from publication PMC7228129, “Evaluation of Developmental Toxicity, Developmental Neurotoxicity, and Tissue Dose in Zebrafish Exposed to GenX and Other PFAS” (Environmental Health Perspectives, 2020).
“Also recorded” adds a separate entry of the source. Like-named read-outs stand apart in the source and are kept apart here.

What was measured:
zebrafish [1] = experiment: Developmental toxicity (DevTox) assay; format: in vivo, Danio rerio; conditions: for EC50: Hill fit; for DevTox assay phenotype: Table 5 summary, this study (some rows also list literature)
Procedure: (§1) At 0 dpf, zebrafish embryos were bleached as previously described ([Tal et al. 2017]). A single embryo at the dome-to-epiboly stages ([Kimmel et al. 1995]) was placed into each individual well of a 96-well plate containing a 40-μm nylon mesh filter (Millipore, Catalog No. MANMN4010) with 400μL of 10% Hanks’ balanced salt solution (HBSS) per well. Filter inserts containing zebrafish embryos were transferred to 96-well culture trays (Millipore, Catalog No. MAMCS9610) containing 250μL of 10% HBSS ([Westerfield 2007]) and 1μL of 250× working solutions per well. A final concentration of 0.4% DMSO was used for all exposure groups and as a vehicle control. In the case of GenX Free Acid in Study 2 (Figure 1), DI water was used as a vehicle control. Daily, from 1–5 dpf, plates underwent 100% media changes to refresh chemical dosing solutions by blotting (Brandel; Catalog No. FPXLR-196) and transferring mesh inserts containing zebrafish to new bottom plates (Millipore; Catalog No. MAMCS9610). To minimize evaporation, plates were sealed (Biorad; Catalog No. MSA5001) and wrapped with parafilm. Plates were maintained on a 14 h:10 h light cycle at 26.0°C and scored daily for death, malformations, hatching, and swim bladder inflation. At 6 dpf, plates were evaluated by two independent observers and DevTox or DNT assays were performed or media and tissue were collected for analytical chemistry analyses as described below.
In Study 1 (Figure 1), zebrafish were exposed, as described in the “Chemical Exposures” section, to 0.04, 0.1, 0.4, 1.1, 3.1, 9.3, 27.2, or 80.0μM PFOS, PFOA, PFHxS, PFHxA, or ADONA, or 0.4% DMSO. Six 96-well plates were tested with a single chemical concentration included on each microtiter plate. Subsequently, as part of Study 1, zebrafish were exposed to 0.04, 0.1, 0.4, 1.1, 3.1, 9.3, 27.2, or 80.0μM PFESA1, or 0.4% DMSO. In Study 2, GenX Free Acid diluted in DI water was tested by exposing zebrafish to 0.04, 0.1, 0.4, 1.1, 3.1, 9.3, 27.2, or 80.0μM of the compound or DI water. […] Zebrafish were exposed to 1.7, 3.1, 5.5, 9.8, 17.6, 31.4, 56.0, or 100.0μM of PFBS, PFHxS, PFHpS, or PFOS or 0.4% DMSO. Subsequently, zebrafish were exposed to 1.7, 3.1, 5.5, 9.8, 17.6, 31.4, 56.0, or 100.0μM PFPeS, or 0.4% DMSO. Chlorpyrifos was used as positive control for malformations ( 8.0μM ) and lethality ( 80.0μM ) ([Padilla et al. 2012]; [Tal et al. 2017]). To conduct DevTox assay assessments, at 6 dpf, two independent observers evaluated zebrafish larvae for survival, hatching, swim bladder inflation, and malformations, including curved body axis, shortened trunk, pericardial edema, yolk sac edema, necrotic yolk sac, pectoral fin abnormalities and head/jaw abnormalities. Directly after assessments, data were reviewed and, in the case of discrepancies, consensus calls were reached. Toxicity values were assigned to descriptive data (i.e., normal=0 , abnormal=20 , severely abnormal=50 , and dead=100 ), modified from a previously described approach ([Padilla et al. 2012]). Briefly, animals with a single malformation were scored as abnormal, whereas animals with ≥2 malformations were scored as severely abnormal.
For the DevTox assay, a Kruskal-Wallace nonparametric one-way analysis of variance (ANOVA) with a Dunn’s multiple comparison test was used to detect differences between exposure groups (* p<0.05 , ** p<0.0001 ) and LOEC values were determined. If a test for linear trend was significant ( p<0.05 ), with developmental toxicity observed at the highest concentration tested, nonlinear regression was performed with a Hill slope curve fitting for half maximal effective concentration ( EC50 ) value determinations.

zebrafish [2] = experiment: Developmental neurotoxicity (DNT) assay, light/dark locomotor behavior test; format: in vivo, Danio rerio; conditions: for Concentration causing hyperactivity in D1 period: dark 1; for Concentration causing hyperactivity in D1 period / Concentration causing hyperactivity in D2 period / Concentration causing hyperactivity in L1 period / Concentration causing hyperactivity in L2 period: vs 0.4% DMSO; for Concentration causing hyperactivity in D2 period: dark 2; for Concentration causing hyperactivity in L1 period: light 1; for Concentration causing hyperactivity in L2 period: light 2; for DNT assay phenotype: Table 5 summary, this study (some rows also list literature)
Procedure: as §1
To increase the likelihood of observing behavioral effects in morphologically normal larvae, the highest concentration evaluated in the DNT assay was the lowest observed effect concentration (LOEC) determined in DevTox assay. Zebrafish were exposed in parallel to 4.4, 7.9, 14.0, 25.1, 44.8, or 80.0μM PFOA, PFHxS, PFHxA, or ADONA or 0.2, 0.3, 0.6, 1.0, 1.8, or 3.1μM PFOS or 0.4% DMSO. Subsequently, as part of Study 1, exposure to 4.4, 7.9, 14.0, 25.1, 44.8, or 80.0μM PFESA1, or 0.4% DMSO was evaluated. In Study 2, zebrafish were exposed to 4.4, 7.9, 14.0, 25.1, 44.8, or 80.0μM GenX Free Acid, or DI water. In Study 3, to increase the likelihood of observing malformations with shorter-chain compounds at multiple test concentrations, the highest concentration evaluated was 100.0μM . Zebrafish were exposed to 5.5, 9.8, 17.6, 31.4, 56.0, or 100.0μM PFBS; 3.1, 5.5, 9.8, 17.6, 31.4, or 56.0μM PFHxS; 1.7, 3.1, 5.5, 9.8, 17.6, or 31.4μM PFHpS; or 0.5, 1.0, 1.7, 3.1, 5.5, or 9.8μM PFOS, or 0.4% DMSO. Subsequently, as part of Study 3, zebrafish were exposed to 3.1, 5.5, 9.8, 17.6, 31.4, or 56.0μM PFPeS, or 0.4% DMSO. Chemical exposures and assessments were performed daily, as described above. To evaluate swimming behavior in a light/dark behavior test, microtiter plates were placed in a dark, temperature-controlled behavior testing room set to 26.0°C for at least 2 h prior to testing. At the time of testing, microtiter plates were placed on a Noldus tracking apparatus. Locomotor activity was recorded (30 frames/s) for a total of 60 min consisting of a 20-min dark acclimation period (0 lux) that was not analyzed followed by a 40-min testing period consisting of a 20-min light period (5.0 lux) and 20-min dark period (0 lux). Videos were analyzed using Ethovision software (version 3.1; Noldus Information Technology) as previously described ([Jarema et al. 2015]). Locomotor activity was collected for each individual fish for each 2-min period (minimum distance moved, set to 0.135cm ). Thus, for a 40-min test, 20 data points were collected per larvae. […] Four additional criteria for inclusion of individual larvae were applied. One, all larvae that were identified as abnormal, severely abnormal, or dead were excluded. Two, larvae with uninflated swim bladders were removed from analyses. Three, individual larvae that moved <2cm in either […] dark period were removed.

zebrafish [3] = conditions: Table 5 summary; zebrafish; ref Hagenaars et al. 2011; Ulhaq et al. 2013a; cited from earlier work
zebrafish [4] = conditions: Table 5 summary, ref Ulhaq et al. 2013b; cited from earlier work
[5] = Danio rerio, Study 3, 1.7–100.0 μM daily 0–5 dpf, scored 6 dpf, 0.4% DMSO
[6] = Study 3, 1.7–100.0 μM daily 0–5 dpf, scored 6 dpf, 0.4% DMSO
[7] = Study 3, daily 0–5 dpf, tested 6 dpf

Compound | EC50 (zebrafish [1]; [5]) [µM] | EC50 (zebrafish [1]; [6]) [µM] | DevTox assay phenotype (zebrafish [1]) | Concentration causing hyperactivity in D1 period (zebrafish [2]; [7]) | Concentration causing hyperactivity in D2 period (zebrafish [2]; [7]) | Concentration causing hyperactivity in L1 period (zebrafish [2]; [7]) [µM] | Concentration causing hyperactivity in L2 period (zebrafish [2]; [7]) [µM] | DNT assay phenotype (zebrafish [2]) | Developmental toxicity outcome (zebrafish [1]; [6]) | Developmental neurotoxicity / locomotor activity outcome (zebrafish [2]; Study 3, daily 0–5 dpf, tested 6 dpf, 0.4% DMSO) | DevTox assay phenotype (zebrafish [3]) | DNT assay phenotype (zebrafish [4]) | LOEC for developmental toxicity (zebrafish [1]; sulfonic acid PFAS study, 1.7–100.0 μM daily 0–5 dpf, scored 6 dpf, 0.4% DMSO) [µM]
O=S(=O)(O)C(F)(F)C(F)(F)C(F)(F)C(F)(F)C(F)(F)F [PFPeS, Perfluoropentanesulfonic acid] | 48.8 | 48.8 | Positive^a | no effect | no effect | 5.5 | 3.1 to 5.5 | Hyperactivity^a | – | – | – | – | –
O=S(=O)(O)C(F)(F)C(F)(F)C(F)(F)C(F)(F)F [PFBS, Perfluorobutanesulfonic acid] | – | – | Negative | – | – | – | – | Negative^a | negative | did not result in significant locomotor effects; also recorded: negative | Positive | Hyperactivity | –
O=S(=O)(O)C(F)(F)C(F)(F)C(F)(F)C(F)(F)C(F)(F)C(F)(F)C(F)(F)F [PFHpS, Perfluoroheptanesulfonic acid] | 168 | – | Positive^a | 3.1 to 5.5 µM | no effect | 5.5 | 3.1 to 5.5 | Hyperactivity^a | – | – | – | – | 31.4
